# Source: patent US20070202090A1, “Water Soluble Form Of Coenzyme Q10 In The Form Of An Inclusion Complex With Beta-Cyclodextrin, Process Of Preparing, And Use Thereof” (priority 2004, published 2007)
# Assays:
# [1] = Dissolution of CoQ10 in dairy products and orange juice; format: physicochemical; details: about 35-37 mg CoQ10 in about 200 g product
# Procedure: β-Cyclodextrin (7.90 g, 6.95 mmole) was dissolved in distilled water (68 mL) at 65-70° C., and under stirring was added CoQ10 (5.00 g, 5.79 mmole). After about 30 minutes the CDQ10 complex precipitated. The reaction mixture was kept stirring for about 10 hours at 70° C., and 10 hours at room temperature, till the formation of an intensive yellow coloured paste. Then equal aliquots (each 500 μL containing about 37 mg of CoQ10 in the form of CDQ10) of the obtained mixture were admixed to about 200 g each: milk (3.5% of milk fat, Ljubljanske miekarne), liquid yoghurt (1.3% of milk fat, Ljubljanske miekarne), fruit yoghurt (peach, Ljubljanske miekarne) and orange juice (100%, Rauch). The obtained preparations were organoleptically compared with non-lemented supplemented milk, liquid yoghurt, fruit yoghurt and orange juice, as well as with those supplemented each with about 35-37 mg CoQ10. As CoQ10 was not dissolved in said products, they were not included in the tests. The tests were performed by 10-21 randomly chosen consumers.
# [2] = Comparison of milk-solubility of CoQ10 and CDQ10 (saturation, HPLC); format: physicochemical; details: fresh milk 3.5% milk fat, room temperature, addition till saturation, filtrate
# Procedure: β-Cyclodextrin (1.575 g, 1.39 mmole) was dissolved in 13 mL of distilled water at 60-70° C. Then 1.00 g (1.16 mmole) of CoQ10 were added to the dissolved β-cyclodextrin, and the mixture was stirred for 20 minutes at 60-70° C. After stirring for some minutes the CDQ10 complex started to precipitate. The reaction mixture was kept stirring for about 8 hours at 60-70° C., and about 2 hours at room temperature, till the formation of a homogenous paste. Then the obtained mixture was under stirring at room temperature added to fresh milk containing 3.5% of milk fat (Ljubljanske mlekarne) till saturation. Into another milk aliquot was added under identical conditions CoQ10 till saturation. […]
compound,measurement,setting,value
"COC1=C(OC)C(=O)C(C/C=C(\C)CC/C=C(\C)CC/C=C(\C)CC/C=C(\C)CC/C=C(\C)CC/C=C(\C)CC/C=C(\C)CC/C=C(\C)CC/C=C(\C)CCC=C(C)C)=C(C)C1=O [CoQ10, coenzyme Q10]","dissolution in milk, liquid yoghurt, fruit yoghurt and orange juice",[1],not dissolved
same,Concentration of CoQ10 in milk,[2],3.2 µg/g
